Tests used:
S. aureus DSM 20231 [1] = assay: Bliss interaction score (quartile over a dose matrix) (fitness difference); higher = more antagonism (negative = synergy)
Procedure, shortened: (§1)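 Fitness was derived from optical density at entry into stationary phase, divided by the robust mean of the no-drug wells on the same plate. That reading was taken as OD595, and the ratio was capped at 1. Single-drug fitness was inferred from the combination data. The Bliss score, observed fitness minus the expected product of single-drug fitness, was summarised as quartiles over technical, biological and donor/recipient replicates.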

B. subtilis 168 [2] = assay: as above
Procedure, shortened: as §1

S. aureus Newman [3] = assay: as above
Procedure, shortened: as §1

S. pneumoniae D39V [4] = assay: as above
Procedure, shortened: as §1

S. aureus DSM 20231 [5] = assay: fitness (endpoint OD595 vs no drug) (fraction); higher = more growth
Procedure, shortened: (§2)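 Bacterial growth was followed in 384-well plates seeded at OD595 0.01, with 30 µl per well, or 55 µl for S. pneumoniae, in TSB, LB Lennox or CY at 37 °C. OD595 was read every 30 min for 14 h, and each reading had the first reading subtracted as background. Fitness is the background-corrected optical density at entry into stationary phase divided by the robust mean of the no-drug control wells. This ratio is capped at 1.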

B. subtilis 168 [6] = assay: as above
Procedure, shortened: as §2

S. aureus Newman [7] = assay: as above
Procedure, shortened: as §2

S. pneumoniae D39V [8] = assay: as above
Procedure, shortened: as §2
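Throughout, for Bliss interaction score (quartile over a dose matrix): first quartile when negative (synergy) and third quartile when positive (antagonism).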

C[C@@H]1O[C@@H]1P(=O)(O)O [Fosfomycin] + CC1=C\[C@@H](O)CC(=O)Cc2nc(co2)C(=O)N2CCC=C2C(=O)O[C@H](C(C)C)[C@H](C)/C=C/C(=O)NC\C=C\1 [Virginiamycin M1]
Details	Bliss interaction score
B. subtilis 168 [2]	0.0317
S. aureus DSM 20231 [1]	-0.0507
S. aureus Newman [3]	-0.0636
S. pneumoniae D39V [4]	-0.0376

fitness
Details	partner 0.0625 µg/mL	partner 0.125 µg/mL	partner 0.25 µg/mL	partner 0.5 µg/mL	partner 1 µg/mL	partner 2 µg/mL
B. subtilis 168 [6], first compound 1.562 µg/mL	0.728	0.688	0.727	–	–	–
B. subtilis 168 [6], first compound 3.124 µg/mL	0.603	0.565	0.576	–	–	–
B. subtilis 168 [6], first compound 6.248 µg/mL	0.488	0.43	0.427	–	–	–
S. aureus DSM 20231 [5], first compound 0.781 µg/mL	0.755	0.783	0.783	–	–	–
S. aureus DSM 20231 [5], first compound 1.562 µg/mL	0.533	0.581	0.605	–	–	–
S. aureus DSM 20231 [5], first compound 3.124 µg/mL	0.487	0.49	0.506	–	–	–
S. aureus Newman [7], first compound 0.781 µg/mL	0.538	0.567	0.555	–	–	–
S. aureus Newman [7], first compound 1.562 µg/mL	0.503	0.511	0.528	–	–	–
S. aureus Newman [7], first compound 3.124 µg/mL	0.173	0.168	0.149	–	–	–
S. pneumoniae D39V [8], first compound 1.25 µg/mL	–	–	–	0.958	0.944	0.928
S. pneumoniae D39V [8], first compound 2.5 µg/mL	–	–	–	0.987	0.956	0.905
S. pneumoniae D39V [8], first compound 5 µg/mL	–	–	–	0.852	0.831	0.854

fitness, one replicate
Details	first compound 0.781 µg/mL	first compound 1.25 µg/mL	first compound 1.562 µg/mL	first compound 2.5 µg/mL	first compound 3.124 µg/mL	first compound 5 µg/mL
S. aureus DSM 20231 [5], partner 0.5 µg/mL	0.847	–	0.614	–	0.412	–
S. aureus DSM 20231 [5], partner 1 µg/mL	0.771	–	0.643	–	0.386	–
S. aureus Newman [7], partner 0.5 µg/mL	0.626	–	0.557	–	0.299	–
S. aureus Newman [7], partner 1 µg/mL	0.614	–	0.478	–	0.182	–
S. aureus Newman [7], partner 2 µg/mL	0.463	–	0.297	–	0.0494	–
S. pneumoniae D39V [8], partner 0.15 µg/mL	–	0.968	–	0.926	–	0.892
S. pneumoniae D39V [8], partner 0.3 µg/mL	–	0.89	–	0.908	–	0.897

COc1cccc2c1C(=O)c1c(O)c3c(c(O)c1C2=O)C[C@@](O)(C(=O)CO)C[C@@H]3O[C@H]1C[C@H](N)[C@H](O)[C@H](C)O1 [Doxorubicin] + COc1c(N2C[C@@H]3CCCN[C@@H]3C2)c(F)cc2c(=O)c(C(=O)O)cn(C3CC3)c12 [Moxifloxacin]
Details	Bliss interaction score
B. subtilis 168 [2]	-0.0247
S. aureus DSM 20231 [1]	0.0448
S. aureus Newman [3]	0.177
S. pneumoniae D39V [4]	-0.0668

fitness
Details	first compound 0.25 µg/mL	first compound 0.5 µg/mL	first compound 0.625 µg/mL	first compound 1 µg/mL	first compound 1.25 µg/mL	first compound 2.5 µg/mL
B. subtilis 168 [6], partner 0.0312 µg/mL	–	–	0.0436	–	0.0321	0.0239
B. subtilis 168 [6], partner 0.0625 µg/mL	–	–	0.0396	–	0.0329	0.0327
B. subtilis 168 [6], partner 0.125 µg/mL	–	–	0.0249	–	0.0462	0.026
B. subtilis 168 [6], partner 2 µg/mL	–	–	0.0338	–	0.0341	0.0223
B. subtilis 168 [6], partner 4 µg/mL	–	–	0.0299	–	0.0351	0.0369
B. subtilis 168 [6], partner 8 µg/mL	–	–	0.0347	–	0.0318	0.0314
S. aureus DSM 20231 [5], partner 0.0075 µg/mL	–	–	0.751	–	0.78	0.735
S. aureus DSM 20231 [5], partner 0.015 µg/mL	–	–	0.759	–	0.764	0.706
S. aureus DSM 20231 [5], partner 0.03 µg/mL	–	–	0.623	–	0.631	0.618
S. aureus Newman [7], partner 0.0075 µg/mL	–	–	0.756	–	0.722	0.659
S. aureus Newman [7], partner 0.015 µg/mL	–	–	0.66	–	0.667	0.611
S. pneumoniae D39V [8], partner 0.005 µg/mL	0.916	0.919	–	0.812	–	–
S. pneumoniae D39V [8], partner 0.01 µg/mL	0.955	0.911	–	0.857	–	–
S. pneumoniae D39V [8], partner 0.02 µg/mL	0.894	0.822	–	0.779	–	–
S. pneumoniae D39V [8], partner 0.0312 µg/mL	0.0684	0.0433	–	0.0394	–	–
S. pneumoniae D39V [8], partner 0.0625 µg/mL	0.0549	0.0614	–	0.0753	–	–
S. pneumoniae D39V [8], partner 0.125 µg/mL	0.0583	0.0523	–	0.0416	–	–

fitness, S. aureus DSM 20231 [5], one replicate
Details	first compound 0.625 µg/mL	first compound 1.25 µg/mL	first compound 2.5 µg/mL
partner 0.06 µg/mL	0.664	0.655	0.638
partner 0.12 µg/mL	0.575	0.531	0.537

COc1ccc(C[C@H](N)C(=O)N[C@H]2[C@@H](O)[C@H](n3cnc4c(N(C)C)ncnc43)O[C@@H]2CO)cc1 [Puromycin] + CN(N=O)C(=O)N[C@@H](C=O)[C@@H](O)[C@H](O)[C@H](O)CO [Streptozotocin]
Details	Bliss interaction score
B. subtilis 168 [2]	0.0705
S. aureus DSM 20231 [1]	0.0762
S. aureus Newman [3]	0.0523
S. pneumoniae D39V [4]	0.0919

fitness
Details	first compound 0.39 µg/mL	first compound 0.78 µg/mL	first compound 1 µg/mL	first compound 1.56 µg/mL	first compound 2 µg/mL	first compound 4 µg/mL
S. aureus DSM 20231 [5], partner 0.15 µg/mL	0.894	0.887	–	0.937	–	–
S. aureus DSM 20231 [5], partner 0.3 µg/mL	0.863	0.857	–	0.812	–	–
S. aureus DSM 20231 [5], partner 0.6 µg/mL	0.714	0.772	–	0.705	–	–
S. aureus Newman [7], partner 0.15 µg/mL	0.912	0.835	–	0.871	–	–
S. aureus Newman [7], partner 0.3 µg/mL	0.737	0.7	–	0.706	–	–
S. aureus Newman [7], partner 0.6 µg/mL	0.595	0.534	–	0.559	–	–
S. pneumoniae D39V [8], partner 1.2 µg/mL	–	–	0.913	–	0.942	0.8
S. pneumoniae D39V [8], partner 2.4 µg/mL	–	–	0.943	–	0.935	0.806
S. pneumoniae D39V [8], partner 4.8 µg/mL	–	–	0.969	–	0.926	0.749

fitness, one replicate
Details	partner 0.15 µg/mL	partner 0.3 µg/mL	partner 0.6 µg/mL
B. subtilis 168 [6], first compound 0.39 µg/mL	0.999	0.978	≥ 1
B. subtilis 168 [6], first compound 0.78 µg/mL	≥ 1	≥ 1	0.981
B. subtilis 168 [6], first compound 1.56 µg/mL	≥ 1	0.925	0.938
S. aureus DSM 20231 [5], first compound 3.12 µg/mL	0.907	0.853	0.806
S. aureus DSM 20231 [5], first compound 6.24 µg/mL	0.706	0.6	0.549

CO/N=C(\C(=O)N[C@@H]1C(=O)N2C(C(=O)O)=C(COC(C)=O)CS[C@H]12)c1csc(N)n1 [Cefotaxime] + CN(N=O)C(=O)N[C@@H](C=O)[C@@H](O)[C@H](O)[C@H](O)CO [Streptozotocin]
Details	Bliss interaction score
B. subtilis 168 [2]	0.0848
S. aureus DSM 20231 [1]	-0.0448
S. aureus Newman [3]	-0.0599
S. pneumoniae D39V [4]	0.0325

fitness, one replicate
Details	partner 0.15 µg/mL	partner 0.3 µg/mL	partner 0.6 µg/mL
B. subtilis 168 [6], first compound 0.00775 µg/mL	0.767	0.832	0.787
B. subtilis 168 [6], first compound 0.0155 µg/mL	0.721	0.743	0.715
B. subtilis 168 [6], first compound 0.031 µg/mL	0.526	0.518	0.502
B. subtilis 168 [6], first compound 0.5 µg/mL	0.34	0.342	0.347
B. subtilis 168 [6], first compound 1 µg/mL	0.132	0.136	0.146
B. subtilis 168 [6], first compound 2 µg/mL	0.0874	0.126	0.183
S. aureus DSM 20231 [5], first compound 0.039 µg/mL	0.756	0.675	0.551
S. aureus Newman [7], first compound 0.625 µg/mL	0.0252	0.0161	0
S. aureus Newman [7], first compound 1.25 µg/mL	0.023	0.0017	0
S. aureus Newman [7], first compound 2.5 µg/mL	0.0355	0.0302	0

fitness
Details	first compound 0.0018 µg/mL	first compound 0.0035 µg/mL	first compound 0.007 µg/mL	first compound 0.078 µg/mL	first compound 0.156 µg/mL	first compound 0.312 µg/mL
S. aureus DSM 20231 [5], partner 0.15 µg/mL	–	–	–	0.691	0.653	0.609
S. aureus DSM 20231 [5], partner 0.3 µg/mL	–	–	–	0.612	0.617	0.614
S. aureus DSM 20231 [5], partner 0.6 µg/mL	–	–	–	0.552	0.564	0.521
S. aureus Newman [7], partner 0.15 µg/mL	–	–	–	0.641	0.476	0.253
S. aureus Newman [7], partner 0.3 µg/mL	–	–	–	0.539	0.389	0.133
S. aureus Newman [7], partner 0.6 µg/mL	–	–	–	0.403	0.204	0.0516
S. pneumoniae D39V [8], partner 1.2 µg/mL	0.957	0.963	0.889	–	–	–
S. pneumoniae D39V [8], partner 2.4 µg/mL	0.97	0.964	0.775	–	–	–
S. pneumoniae D39V [8], partner 4.8 µg/mL	0.978	0.938	0.861	–	–	–

Reference: the supplement of paper PMC10627819
